Key:
[1] = target: T1, purified human 20S proteasome, CT-L site (Homo sapiens, UniProt P25787+P60900); assay: 20S proteasome small peptide assay, Suc-LLVY-AMC chymotryptic-like probe; assay type: biochemical; conditions: for AC200 CT-L site: concentration needed to double rate vs vehicle; for Max Fold CT-L site: maximum fold rate increase vs vehicle
T1 construct: purchased Boston Biochem or Life Sensors E-360 or ps020
Description: (§1) In vitro testing, 20S activation: The 20S proteasome activity of the compounds was assessed by utilizing the standard fluorogenic 7-amino-methylcoumarin (AMC) conjugated small peptide substrates that correspond to each of the catalytic sites in the 20S proteasome: chymotryptic-like site (Suc-LLVY-AMC), caspase-like site (Z-LLE-AMC), and trypsin-like site (Boc-LRR-AMC). When the small peptide substrate is degraded by the 20S proteasome, the AMC fluorophore is released and quantified to measure the rate of proteolytic cleavage. The 20S proteasome activity of the small molecules was evaluated at varying concentrations to determine the concentration at which the rate of proteolysis was doubled (i.e. the concentration needed to induce 200% activity) compared to the vehicle control (hereafter named as AC200). Concentrations ranging from 1.25 μM to 80 μM of each of compound were added to wells that contained 0.5 nM of purified human proteasome.
(§2) The overall enhancement of the rate of proteolysis of the 20S proteasome by a small molecule was first evaluated by adding a combination of all three peptide substrates to the treated sample. The combination of all three substrates represents a more accurate measurement of proteolytic activity of the proteasome because the catalytic sites housed in the β ring of the 20S proteasome communicate through allosteric interactions. For example, when a protein substrate encounters the chymotryptic-like site, a conformational change will occur activating the caspase-like site.^61 The individual contribution of each of the three catalytic sites was subsequently evaluated by adding only the corresponding peptide probes to gain insight into the contribution of each site on the overall enhanced proteolytic activity.
(§3) The fluorescent output, due to release of the AMC fluorophore, was then converted to the fold increase compared to a vehicle control sample, and the AC200 was calculated. […] (Table 1).
(§4) AC200 represents the concentration needed to double (e.g., 200%) the rate of substrate degradation compared to vehicle control. Max fold is the maximum fold rate increase compared to vehicle control.
(§5) 20S Proteasome Small Peptide Assay: Activity assays were carried out in a black flat/clear bottom 96 well plate with a […] volume. Concentrations of the potential activators, varying from 80 μM to 1.25 μM, were added to the well that contained 1 nM 20S proteasome purchased from either Boston Biochem (catalog number E-360) or Life Sensors (catalog number ps020), in a […] buffer at a pH of 7.8. This solution was left to incubate at 37° C. for 15 minutes. For the assay for the overall proteasome activity, 13.33 μM of each small peptide substrate is added. The 96 well plate is then placed into a plate reader (SpectraMax M5e spectrometer) and the plate reader will take a fluorescent reading every 5 minutes for an hour at 37° C. The enzymatic activity of the 20S proteasome is quantified using the fluorescent output at 380-460 nm, which is converted to max fold increase over the untreated sample. The activity of the individual catalytic assays is identical to the assay that assesses the overall activity of the 20S proteasome except only one small peptide substrate is added. To evaluate the activity of the CT-L and the Casp-L sites, 10 μM of the Suc-LLVY-AMC (Boston Biochem S-280) and Z-LLE-AMC (Boston Biochem S-230) were added, respectively. To evaluate the activity of the T-L site, 20 μM of the Boc-LRR-AMC (Boston Biochem S-300) is added.

[2] = target: T2, purified human 20S proteasome (Homo sapiens, UniProt P25787+P60900); assay: 20S proteasome small peptide assay, combination of all three fluorogenic substrates (CT-L/Casp-L/T-L); assay type: biochemical; conditions: three probes combined; for AC200 CT-L/Casp-L/T-L: concentration needed to double (200%) the rate of substrate degradation vs vehicle; for Max Fold CT-L/Casp-L/T-L: maximum fold rate increase vs vehicle control
T2 construct: purchased Boston Biochem or Life Sensors E-360 or ps020
Description: as §1, §2, §3, §4, §5

[3] = target: 26S proteasome (Homo sapiens, UniProt P25787+P60900); assay: Fluorogenic small peptide degradation assay with the 26S proteasome (ATP and magnesium chloride added); assay type: biochemical; conditions: for 26S proteasome activation, in words: concentration range 0-80 μM
Description: The fluorogenic small peptide degradation assay was conducted again, with the 26S proteasome in place of the 20S proteasome. To ensure that the 26S proteasome remained in its fully assembled complex, ATP and magnesium chloride were added.

[4] = target: T3, purified human 20S proteasome, Casp-L site (Homo sapiens, UniProt P25787+P60900); assay: 20S proteasome small peptide assay, Z-LLE-AMC caspase-like probe; assay type: biochemical; conditions: for AC200 Casp-L site: concentration needed to double rate vs vehicle
T3 construct: purchased Boston Biochem or Life Sensors E-360 or ps020
Description: as §1, §2, §3, §4, §5

[5] = target: T4, purified human 20S proteasome, T-L site (Homo sapiens, UniProt P25787+P60900); assay: 20S proteasome small peptide assay, Boc-LRR-AMC trypsin-like probe; assay type: biochemical; conditions: for AC200 T-L site: concentration needed to double rate vs vehicle
T4 construct: purchased Boston Biochem or Life Sensors E-360 or ps020
Description: as §1, §2, §3, §4, §5

[6] = test system: A53T mutant α-synuclein in Hek-293T cells; assay: In cell degradation of A53T α-synuclein (Western blot); assay type: cell-based; conditions: 10 hours
Description: Error bars denote standard deviation. One-way ANOVA statistical analysis was used to determine statistical significance (ns=not significant, *p<0.05, **p<0.01, ***p<0.001, ****p<0.0001) (FIG. 4B).
Cellular efficacy: The A53T mutation of α-synuclein has been linked to early on-set familial Parkinson's disease and appears to oligomerize faster than the wild-type protein. […] Hek-293T cells were transiently transfected with an inducible Tet-One A53T mutant α-synuclein. The cells were treated with 100 ng/mL of doxycycline to induce the production of the A53T mutant. […] The cells were then lysed and the remaining A53T α-synuclein was visualized and quantified via Western Blotting (FIG. 4, n=4).
In cell degradation of A53T α-synuclein: In a 6 well plate, Hek293T cells were grown to 80% confluency and then transfected using Xfect biopolymer transfection system with the Tet-One A53T α-synuclein plasmid. 24 hours post transfection, 100 ng/mL of doxycycline was added to induce A53T α-synuclein expression. After 24 hours of protein induction, media was removed that contained the doxycycline and was washed with PBS. Media with the desired drug concentration or DMSO was added and treated for 10 hours. After the cells were treated with the test compounds or DMSO, the cells were scraped and the pelleted (300 g for 5 minutes). The supernatant was taken off and the cell pellet was washed with ice cold PBS and then lysed with RIPA buffer with added protease inhibitors. The cell lysate was incubated for 20 minutes on ice. The lysate was centrifuged for 15 minutes at 500 g and then the supernatant was collected. Concentrated SDS loading buffer was added and the samples were boiled for 10 minutes. The samples were then resolved on a 4-20% Tris-glycine SDS-PAGE gel and immunoblotted with mouse monoclonal anti α-synuclein IgG (1:2000) and anti-mouse HRP-linked IgG (1:2000). Blots were developed with ECL Westem reagent and imaged with an Azure Biosystems 3000 imager.

[7] = target: T2, purified human 20S proteasome; assay: Digestion of purified α-synuclein by purified 20S proteasome (silver staining); assay type: biochemical
Description: Quantification of α-synuclein degradation by each compound was done in triplicate. One-way ANOVA statistical analysis was used to determine statistical significance (ns=not significant, *p<0.05, *p<0.01, ***p<0.001, ****p<0.0001).
In vitro testing, IDP degradation: The ability of our small molecules 20S proteasome activators to degrade pathologically relevant IDPs was evaluated in vitro and in cells. […] Then, purified α-synuclein was added and the digestion was incubated at 37° for 6 hours. An SDS loading buffer was added and the samples were boiled to halt α-synuclein degradation. The percentage of remaining α-synuclein was visualized and quantified using silver staining (FIG. 3). Compound 2 was able to increase the rate of degradation of full length α-synuclein. At the highest concentration (5 μM), α-synuclein was reduced up to 33%.
Digestion of purified α-synuclein: Degradation assays were carried out in a 50 μL reaction volume of […] buffer at a pH of 7.8, 0.5 μM of purified α-synuclein, and 7.5 nM purified human 20S proteasome. The 20S proteasome was first diluted to 8.56 nM in the Tris-HCl buffer and 1 μL of the test compounds or DMSO was added. This mixture was incubated for 20 minutes at 37° C. After this incubation, 5 μL of a 5 μM stock of α-synuclein was added. The degradation mixture was incubated at 37° C. for 5 hours. The reaction was stopped with addition of concentrated SDS loading buffer and boiled for 10 minutes. After the samples were boiled, they were resolved on a 4-20% Tris-glycine SDS-PAGE gel and visualized using silver staining.

[8] = maximum fold rate increase vs vehicle

AC200 CT-L site [1] [µM] | Max Fold CT-L site [1] [fold] | AC200 CT-L/Casp-L/T-L [2] [µM] | Max Fold CT-L/Casp-L/T-L [2] [fold] | 26S proteasome activation, maximum fold increase over the vehicle control ([3]; at higher concentrations (range 0-80 μM)) [fold] | AC200 Casp-L site [4] [µM] | AC200 T-L site [5] [µM] | depletion of α-synuclein over concentration range, in words ([7]; 0.1 μM to 5 μM) | decrease of α-synuclein ([7]; 0.5 μM compound, 37° C., 6 hours) [%] | reduction of α-synuclein ([7]; 5 μM compound, 37° C., 6 hours) [%] | Max Fold Casp-L site [4, 8] [fold] | Max Fold T-L site [5, 8] [fold] | Compound | 26S proteasome activation, in words [3] | reduction of A53T mutant α-synuclein, in words ([6]; 3 μM (lowest concentration)) | decrease of accumulated A53T α-synuclein ([6]; 10 μM, normalized to vehicle) [%]
7 | 8 | 13.5 | ~4 | 2 | >80 | >80 | – | – | – | – | – | CN(C)CCCN1c2ccccc2Sc2ccc(Cl)cc21 [CPZ, chlorpromazine, reference compound] | did not enhance the proteolytic activity of the 26S proteasome | – | –
0.7 | 9.4 | 0.4 | 11 | – | 1.8 | 0.3 | clear dose dependent depletion | 34 | 57 | 9.4 | 6 | O=C(CCN1c2ccccc2Sc2ccc(Cl)cc21)N(c1ccc(F)cc1)c1ccc(F)cc1 [Compound 19, 3-(2-chloro-10H-phenothiazin-10-yl)-N,N-bis(4-fluorophenyl)propanamide] | did not display any 26S proteasome activation | reduce the concentration of the A53T mutant α-synuclein significantly | 58
